Measurements: patent US20210007356A1, “IMIDE DERIVATIVE AND FUNGICIDE CONTAINING SAID DERIVATIVE AS ACTIVE INGREDIENT” (HOKKO CHEMICAL INDUSTRY CO., LTD., priority 2018, published 2021)
Like-named read-outs stand apart in the source and are kept apart here.

Key:
[1] = tested on: barley powdery mildew fungus (Erysiphe graminis); experiment: Test Example 2: control effect against barley powdery mildew by foliage application; format: in vivo; conditions: wettable powder diluted to 100 ppm, 10 mL per pot foliage spray on barley; inoculated day after; 7 days after inoculation
[2] = tested on: rice blast fungus (Pyricularia grisea); format: in vivo; conditions: flowable 5,000 ppm, 50 mL irrigation of nursery box, paddy rice; inoculated after 3 weeks; 7 days after inoculation
[3] = tested on: rice blast fungus (Pyricularia grisea); format: in vivo; conditions: flowable 1,000 ppm, 1 mL dripped in paddy water, inoculated after 1 week, 7 days after inoculation
[4] = tested on: rice sheath blight fungus (Thanatephorus cucumeris); experiment: Test Example 6: control effect against rice sheath blight by box treatment (flowable formulation); conditions: flowable 5,000 ppm, 50 mL irrigation of nursery box, paddy rice; inoculated after 3 weeks; 7 days after inoculation
[5] = tested on: rice sheath blight fungus (Thanatephorus cucumeris); experiment: Test Example 8: control effect against rice sheath blight by box treatment (granule); conditions: 5 g of granule on nursery box, paddy rice; inoculated after 3 weeks; 7 days after inoculation
Description: Control value (%)=[1−(lesion height in sprayed plot/lesion height in unsprayed plot)]×100 (d)
From the top of a nursery box, 5 g of a granule prepared according to Formulation Example-4 was applied to a 2.5-leaf-stage paddy rice (variety: Asahi) seedling raised using a nursery box ( 1/10 the area of standard nursery box in size: 12 cm×15 cm×height 4 cm) within a greenhouse. The formulation-treated paddy rice seedling was immediately transplanted at 5 seedlings/pot into a pot ( 1/10000 are in size) filled with paddy soil (flooded). After growing for 3 weeks within a greenhouse, a culture of rice sheath blight fungus (Thanatephorus cucumeris) grown in advance on a rice straw medium was inoculated into the root of the formulation-treated paddy rice, and disease development was promoted in an artificial weather chamber at 26° C. (relative humidity=100%). Seven days after the inoculation, the rice sheath blight lesion height (height from the root) was examined, and the control value (%) was calculated according to formula (d). […] This test was performed with three replications, each consisting of one plot and one pot, per one formulation plot, and its average evaluation value of control effect was determined.

[6] = tested on: rice blast fungus (Pyricularia grisea); format: in vivo; conditions: 5 g of granule on nursery box, paddy rice; inoculated after 3 weeks; 7 days after inoculation
[7] = tested on: rice sheath blight fungus (Thanatephorus cucumeris); experiment: Test Example 10: control effect against rice sheath blight by water surface application (flowable formulation); conditions: flowable 1,000 ppm, 1 mL dripped in paddy water, inoculated after 1 week, 7 days after inoculation
[8] = tested on: rice blast fungus (Pyricularia grisea); format: in vivo; conditions: flowable diluted to 100 ppm, 10 mL per pot foliage spray on paddy rice; inoculated day after; 7 days after inoculation

Which “evaluation value of control effect (from control value, lesion area percentage)” value [1] does the source give for `Cc1nc(C(F)F)c(C(=O)N(C(=O)c2cn(C)nc2C(F)F)c2ccccc2CCC(C)C)s1` [1-313] here?
The value was 4.

And the “evaluation value of control effect (from control value, number of lesions)” value [2]?
The value was 5.

What about the “evaluation value of control effect (from control value, number of lesions)” value [3] of the same compound?
Its value is 5.

What about the “evaluation value of control effect (from control value, lesion height)” value [4] of the same compound?
The value was 5.

What about the “evaluation value of control effect (from control value, lesion height)” value [5] of the same compound?
Its value is 5.

And the “evaluation value of control effect (from control value, number of lesions)” value [6]?
The value was 5.

What about the “evaluation value of control effect (from control value, lesion height)” value [7] of the same compound?
The value was 5.

And the “evaluation value of control effect (from control value, number of lesions)” value [8]?
Its value is 4.

For `Cc1nn(C)c(F)c1C(=O)N(C(=O)c1cc(Cl)no1)c1ccccc1C(C)CC(C)C` (centres unmarked) [1-376], which “evaluation value of control effect (from control value, lesion area percentage)” value [1] is on record?
Its value is 4.

What about the “evaluation value of control effect (from control value, number of lesions)” value [2] of the same compound?
The value was 5.

And the “evaluation value of control effect (from control value, number of lesions)” value [3]?
The value was 5.

What about the “evaluation value of control effect (from control value, lesion height)” value [4] of the same compound?
The value was 5.

What about the “evaluation value of control effect (from control value, lesion height)” value [5] of the same compound?
The value was 5.

And the “evaluation value of control effect (from control value, number of lesions)” value [6]?
The value was 5.

And the “evaluation value of control effect (from control value, lesion height)” value [7]?
Its value is 5.

And the “evaluation value of control effect (from control value, number of lesions)” value [8]?
The value was 4.

For `Cc1nc(C(F)F)c(C(=O)N(C(=O)c2snnc2C)c2cccc3c2C(C)OC3(C)C)s1` (centres unmarked) [26-50], which “evaluation value of control effect (from control value, lesion area percentage)” value [1] is on record?
Its value is 4.

What about the “evaluation value of control effect (from control value, number of lesions)” value [2] of the same compound?
The value was 5.

And the “evaluation value of control effect (from control value, number of lesions)” value [3]?
The value was 5.

What about the “evaluation value of control effect (from control value, lesion height)” value [4] of the same compound?
Its value is 5.

What about the “evaluation value of control effect (from control value, lesion height)” value [5] of the same compound?
Its value is 5.

And the “evaluation value of control effect (from control value, number of lesions)” value [6]?
The value was 5.

And the “evaluation value of control effect (from control value, lesion height)” value [7]?
Its value is 5.

And the “evaluation value of control effect (from control value, number of lesions)” value [8]?
Its value is 4.

What does the source list for `CC(C)CC(C)c1ccccc1N(C(=O)c1cccnc1Br)C(=O)c1snc(Cl)c1Cl` (centres unmarked) [13-54]?
evaluation value of control effect (from control value, lesion area percentage) [1]: 4; evaluation value of control effect (from control value, number of lesions) [2]: 5; evaluation value of control effect (from control value, number of lesions) [3]: 5; evaluation value of control effect (from control value, lesion height) [4]: 5; evaluation value of control effect (from control value, lesion height) [5]: 5; evaluation value of control effect (from control value, number of lesions) [6]: 5; evaluation value of control effect (from control value, lesion height) [7]: 5; evaluation value of control effect (from control value, number of lesions) [8]: 4

With `Cn1cc(C(=O)N(C(=O)c2onc(Cl)c2Cl)c2ccccc2-c2cc(F)c(F)c(F)c2)c(C(F)F)n1` [1-374] as the compound, how does the “evaluation value of control effect (from control value, lesion area percentage)” value [1] read?
The value was 4.

What about the “evaluation value of control effect (from control value, number of lesions)” value [2] of the same compound?
The value was 5.

And the “evaluation value of control effect (from control value, number of lesions)” value [3]?
Its value is 5.

And the “evaluation value of control effect (from control value, lesion height)” value [4]?
Its value is 5.

And the “evaluation value of control effect (from control value, lesion height)” value [5]?
Its value is 5.

What about the “evaluation value of control effect (from control value, number of lesions)” value [6] of the same compound?
The value was 5.

And the “evaluation value of control effect (from control value, lesion height)” value [7]?
Its value is 5.

And the “evaluation value of control effect (from control value, number of lesions)” value [8]?
The value was 4.

`Cc1nnsc1C(=O)N(C(=O)c1cn(C)nc1C(F)F)c1cccc2c1C(C)OC2(C)C` (centres unmarked) [25-56] was tested. Which “evaluation value of control effect (from control value, lesion area percentage)” value [1] did it give?
Its value is 4.

And the “evaluation value of control effect (from control value, number of lesions)” value [2]?
The value was 5.

What about the “evaluation value of control effect (from control value, number of lesions)” value [3] of the same compound?
Its value is 5.

And the “evaluation value of control effect (from control value, lesion height)” value [4]?
The value was 5.

What about the “evaluation value of control effect (from control value, lesion height)” value [5] of the same compound?
Its value is 5.

And the “evaluation value of control effect (from control value, number of lesions)” value [6]?
Its value is 5.

And the “evaluation value of control effect (from control value, lesion height)” value [7]?
The value was 5.

What about the “evaluation value of control effect (from control value, number of lesions)” value [8] of the same compound?
The value was 4.

Which results are given for `CC(C)CC(C)c1ccccc1N(C(=O)c1cc(F)nc(F)c1)C(=O)c1cccnc1C(F)F` (centres unmarked) [13-58]?
evaluation value of control effect (from control value, lesion area percentage) [1]: 5; evaluation value of control effect (from control value, number of lesions) [2]: 5; evaluation value of control effect (from control value, number of lesions) [3]: 5; evaluation value of control effect (from control value, lesion height) [4]: 5; evaluation value of control effect (from control value, lesion height) [5]: 5; evaluation value of control effect (from control value, number of lesions) [6]: 5; evaluation value of control effect (from control value, lesion height) [7]: 5; evaluation value of control effect (from control value, number of lesions) [8]: 4
